Read-outs that look alike come from different tables or passages of the source.
Experiments:
[1] = test system: HCT116 (Colon); test: MTT cell proliferation assay, HCT116; type: cell-based, human; details: read-out: IC50 μM HCT116 (Colon)
Method: (§1) Cell Culture: The human breast cancer epithelial cell lines MDA-MB-231 (HTB-26™), MCF-7 (HTB-22™), colon cancer cell lines HCT 116 (CCL-247™) and […] (CCL-244™) were obtained from American Type Culture Collection (ATCC). Additionally, KAIMRC1 cell line was isolated and developed at KAIMRC from a breast cancer patient. All the cells were grown in advanced DMEM containing 10% fetal bovine serum (FBS), 50 units/mL penicillin, 50 ug/mL streptomycin (GIBCO), and 2 mM glutamine (GIBCO). The cells were cultured at 37° C. in a humidified 5% CO2 atmosphere for 24 hours before experimental procedure.
(§2) Cell Proliferation Assay (MTT): Cells were plated on flat-bottom 96-well plates at a density of 5×10^3 cells/well in 100 μL growth medium. Serial dilutions of the compounds, ranging from 100 nM-100 μM were tested on the cells in triplicates. Additional rows with only the compounds and only cells were added in order to account for the compounds and cells effect. Cells were incubated with compounds for 48 h at 37° C. with 5% CO2.
(§3) After 48 h treatment, the cell viability was determined using the MTT viability assay. Briefly, 5 μL of MTT reagent (5 mg/mL stock) per 95 μl cell culture medium was added to each well and incubated for 3 h at 37° C. with 5% CO2. After 3 h the supernatant was removed, and the MTT formazan crystals were dissolved in dimethyl sulfoxide (DMSO) by shaking the plate for 30 mins at RT. The absorbance was measured on Molecular Devices microplate absorbance reader at 560 nm. The percentage of viable cells was calculated as the ratio of the absorbance of the treated group divided by the absorbance of the control group multiplied by 100. The absorbance from the untreated control cells was set as 100% viable. IC50 values were calculated from dose-response curves generated using a polynomial dose-response approximation using Prism 8 software. The IC50 values (µM) obtained for the compounds of present invention on MDA-MD 231 (breast), MCF-7 (breast), KAIMRC1 (breast), HCT116 (colon) and HCT8 (colon) are summarized in Table 5 and 6.

[2] = test system: MDA MB-231 cell line (Breast); test: MTT cell proliferation assay, MDA MB-231; type: cell-based, human; details: read-out: IC50 μM MDA MB-231 (Breast)
Method: as §1, §2, §3

[3] = test system: KAIMRC1 (Breast); test: MTT cell proliferation assay, KAIMRC1; type: cell-based, human; details: read-out: IC50 μM KAIMRC1 (Breast)
Text: The immortalized cell lines included in the testing panel of this disclosure are MCF7 (a breast cancer cell line), MCF10 (immortalized human breast epithelial cells), MDA-MB231 (an epithelial, human breast cancer cell line that was established from a pleural effusion of a patient with a metastatic mammary adenocarcinoma), KAIMRC1 (a naturally immortalized human breast carcinoma cell line), KAIMRC2 (a naturally immortalized breast cancer cell line). The primary cells available for lead toxicity assays are, without limitation: hepatocytes (supplied by Xenotech, Bioscience Lonza, Accegen, Biocompare, Gibco, Zen-Bio, Takarabio, AxolBio, Creative Bioarray), cardiomyocytes (supplied by Cellartis, Axolbio, Cedarlanelabs, EMD Millipore, Takara Bio, Neuromics, AcceGene), primary neurons (AcceGen, Cellapplications, Neuromics, Biocompare, AxolBio, BrainXcell), endothelial lining (Thermofisher, Accegen, Biocompare, Promocell, ATCC). Multicellular 3D organoids raised by differentiating iPSC (induced pluripotent stem cells) are provided by Sigma Aldrich (the iPSC cell lines, organoids), Tocris Bioscience, Thermofisher, Stemcell Technologies, Takara Bio, Emulatebio (Human organ chips), Prodolabs.
as §1, §2, §3

[4] = test system: ThP1 (leukemia); test: Cell Titre Glo luminescent cell viability assay, ThP1; type: cell-based; details: Cell Titre Glo luminescence, normalized to DMSO controls
Text: (§4) Another embodiment discloses Titer Glo Assay for the characterization of the synthesized compounds. The CellTiter-Glo® Luminescent Cell Viability Assay is a homogeneous method of determining the number of viable cells in culture based on quantitation of the ATP present, an indicator of metabolically active cells. The CellTiter-Glo® Assay is designed for use with multiwell formats, making it ideal for automated high-throughput screening (HTS), cell proliferation, and cytotoxicity assays. The homogeneous assay procedure involves adding the single reagent (CellTiter-Glo® Reagent) directly to cells cultured in serum-supplemented medium. Cell washing, removal of medium, and multiple pipetting steps are not required. The system detects as few as 15 cells/well in a 384-well format in 10 minutes after adding reagent and mixing.
as §1
(§5) Cell Titre Glo assay was performed on two Leukemia cell lines, HL 60 and ThP1 as per manufacturer's (Promega) recommendations. Briefly, plates were prepared as mentioned in cell culture section. 100 µL of Cell Titre Glo was added directly to the wells. After incubation for 30 minutes at room temperature, luminescence was measured using the Envision plate reader (Perkin Elmer). Luminescence readings were normalized to averaged DMSO controls and expressed as relative percentage. IC50 values were calculated from dose-response curves generated using a polynomial dose-response approximation using Prism 8 software.

[5] = test system: MCF-7 (Breast); test: MTT cell proliferation assay, MCF-7; type: cell-based, human; details: read-out: IC50 μM MCF-7 (Breast)
Method: as §1, §2, §3

[6] = test system: HL 60 (leukemia); test: Cell Titre Glo luminescent cell viability assay, HL 60; type: cell-based; details: Cell Titre Glo luminescence, normalized to DMSO controls
Text: as §4, §1, §5

[7] = test system: HCT 8 (Colon); test: MTT cell proliferation assay, HCT 8; type: cell-based, human; details: read-out: IC50 μM HCT 8 (Colon)
Method: as §1, §2, §3

[8] = test system: MDA-MD 231 (breast), MCF-7 (breast), KAIMRC1 (breast), HCT116 (colon) and HCT8 (colon); test: MTT assay, review of Tables 5 and 6 (whole cell line panel); type: cell-based, human; details: review of Tables 5 and 6, MTT IC50
Method: as §1, §2, §3
The presence of nitrogen in certain positions of quinoline and/or iso-quinoline ring is the structure-activity determinant, and the subsequent variations in the nitrogen positions and substituents in this ring produce stronger leads by the methods of combinatorial expansion disclosed herein.

[9] = Homo sapiens, HCT-116, MTT, 48 h treatment, medium with 10% FBS
[10] = Homo sapiens, MDA-MB-231, MTT, 48 h treatment, medium with 10% FBS
[11] = Homo sapiens, MTT, 48 h treatment, medium with 10% FBS
[12] = Homo sapiens, MCF7, MTT, 48 h treatment, medium with 10% FBS
[13] = Homo sapiens, HCT-8, MTT, 48 h treatment, medium with 10% FBS
[14] = MTT, 48 h treatment, medium with 10% FBS

SMILES | IC50 [1, 9] | IC50 [2, 10] | IC50 [3, 11] | IC50 [5, 12] | IC50 [7, 13] | further results
CC1(C)OC(=O)C(=CC=Cc2ccnc3ccccc23)C(=O)O1 [Example 11, 2,2-DIMETHYL-5-(3-QUINOLIN-4-YL-ALLYLIDENE)-[1,3]DIOXANE-4,6-DIONE] | 10.4 µM | 14.1 µM | 33.2 µM | 19.7 µM | 14.1 µM | IC50 ([4]; Homo sapiens, THP-1): 1.68 µM; IC50 ([6]; Homo sapiens, HL-60): 1.86 µM
O=C1NC(=O)C(=C/C=C/c2c3ccccc3cc3ccccc23)C(=O)N1 [Example 1, 5-(3-ANTHRACEN-9-YL-ALLYLIDENE)-PYRIMIDINE-2,4,6-TRIONE] | – | – | – | – | – | IC50 ([1]; Homo sapiens, HCT-116, 48 h): 27.1 µM; IC50 ([2]; Homo sapiens, MDA-MB-231, 48 h): 52 µM; IC50 ([5]; Homo sapiens, MCF7, 48 h): 10.5 µM
O=C1OC2(CCC2)OC(=O)C1=CC=Cc1cccc2ccccc12 [Example 20, 7-(3-NAPHTHALEN-1-YL-ALLYLIDENE)-5,9-DIOXA-SPIRO[3.5]NONANE-6,8-DIONE] | 4.84 µM | – | 11.9 µM | 4.24 µM | 3.87 µM | IC50 ([4]; Homo sapiens, THP-1): 2.04 µM; IC50 ([6]; Homo sapiens, HL-60): 2.41 µM
CCC1(C)OC(=O)C(=CC=Cc2cccc3ccccc23)C(=O)O1 (stereo not drawn) [Example 19, 2 ETHYL,2-METHYL-5-(3-NAPHTHALEN-1-YL-ALLYLIDENE)-[1,3]DIOXANE-4,6-DIONE] | 2.44 µM | 5.92 µM | 5.82 µM | 5.82 µM | 2.95 µM | –
CCC1(C)OC(=O)C(=CC=Cc2ccc(OC)c3ccccc23)C(=O)O1 (stereo not drawn) [Example 21, 2-ETHYL-5-[3-(4-METHOXY-NAPHTHALEN-1-YL)-ALLYLIDENE]-2-METHYL-[1,3]DIOXANE-4,6-DIONE] | 50 µM | 17 µM | – | – | – | –
O=C1OC2(CCC2)OC(=O)C1=CC=Cc1cncc2ccccc12 [Example 16, 7-(3-ISOQUINOLIN-4-YL-ALLYLIDENE)-5,9-DIOXA-SPIRO[3.5]NONANE-6,8-DIONE] | 8.04 µM | – | 8.09 µM | 5.44 µM | 6.01 µM | –
O=C1c2c(O)ccc(O)c2C(=O)c2c(NCCNCCO)ccc(NCCNCCO)c21 [Mitoxanthrone, reference compound] | – | – | – | – | – | IC50 [1, 14]: 0.71 µM; IC50 [2, 14]: 0.51 µM; IC50 [3, 14]: 10.1 µM; IC50 [4]: 0.22 µM; IC50 [5, 14]: 3.61 µM; IC50 [6]: 0.7 µM; IC50 [7, 14]: 1.25 µM
CC1(C)OC(=O)C(=CC=Cc2cccc3occc23)C(=O)O1 [Example 32, 5-(3-BENZOFURAN-4-YL-ALLYLIDENE)-2,2-DIMETHYL-[1,3]DIOXANE-4,6-DIONE] | 34.2 µM | 7.5 µM | – | – | – | –
CC1(C)OC(=O)C(=CC#Cc2cccc3ccccc23)C(=O)O1 [Example 28, 2,2-DIMETHYL-5-(3-NAPHTHALEN-1-YL-PROP-2-YNYLIDENE)-[1,3]DIOXANE-4,6-DIONE] | – | – | – | – | – | IC50 ([3]; Homo sapiens, 48 h): 7.36 µM; IC50 ([7]; Homo sapiens, HCT-8, 48 h): 8.82 µM
CC1(C)OC(=O)C(=CC=Cc2cccc3ccccc23)C(=O)O1 [Example 18, 2,2-DIMETHYL-5-(3-NAPHTHALEN-1-YL-ALLYLIDENE)-[1,3]DIOXANE-4,6-DIONE] | – | – | 6.54 µM | – | 5.78 µM | –
CCC1(C)OC(=O)C(=C/C=C/c2ccncc2)C(=O)O1 (stereo not drawn) [Example 9, 2-ETHYL-2-METHYL-5-(3-PYRIDIN-4-YL-ALLYLIDENE)-[1,3]DIOXANE-4,6-DIONE] | 3.54 µM | 5.03 µM | 21.6 µM | 24.2 µM | 2.17 µM | range of activity compared with Mitoxanthrone [8]: range of activity that begins to overlap with that of Mitoxanthrone; IC50 ([4]; Homo sapiens, THP-1): 2.81 µM
CCC1(C)OC(=O)C(=C/C=C/c2c3ccccc3cc3ccccc23)C(=O)O1 (stereo not drawn) [Example 2, 5-(3-ANTHRACEN-9-YL-ALLYLIDENE)-2-ETHYL-2-METHYL-[1,3]DIOXANE-4,6-DIONE] | – | 25.2 µM | – | – | – | –
O=C1OC2(CCCCC2)OC(=O)C1=CC=Cc1ccnc2ccccc12 [Example 17, 3-(3-QUINOLIN-4-YL-ALLYLIDENE)-1,5-DIOXA-SPIRO[5.5]UNDECANE-2,4-DIONE] | 13.7 µM | 13 µM | 19.6 µM | 17.3 µM | 12.9 µM | –
CC1(C)OC(=O)C(=CC=Cc2cncc3ccccc23)C(=O)O1 [Example 10, 5-(3-ISOQUINOLIN-4-YL-ALLYLIDENE)-2,2-DIMETHYL-[1,3]DIOXANE-4,6-DIONE] | – | – | 4.45 µM | – | 1.37 µM | range of activity compared with Mitoxanthrone [8]: range of activity that begins to overlap with that of Mitoxanthrone; IC50 ([4]; Homo sapiens, THP-1): 1.51 µM
O=C1NC(=O)C(=C/C=C/c2ccnc3ccccc23)C(=O)N1 [Example 6, 5-(3-QUINOLIN-4-YL-ALLYLIDENE)-PYRIMIDINE-2,4,6-TRIONE] | – | – | – | – | – | IC50 ([2]; Homo sapiens, MDA-MB-231, 48 h): 21.2 µM; IC50 ([3]; Homo sapiens, 48 h): 18 µM; IC50 ([5]; Homo sapiens, MCF7, 48 h): 31.9 µM
O=C1OC2(CCC2)OC(=O)C1=CC=Cc1ccnc2ccccc12 [Example 15, 7-(3-QUINOLIN-4-YL-ALLYLIDENE)-5,9-DIOXA-SPIRO[3.5]NONANE-6,8-DIONE] | – | 7.84 µM | – | – | – | –
CCCC1(C)OC(=O)C(=CC=Cc2ccnc3ccccc23)C(=O)O1 (stereo not drawn) [Example 14, 2-METHYL-2-PROPYL-5-(3-QUINOLIN-4-YL-ALLYLIDENE)-[1,3]DIOXANE-4,6-DIONE] | 15.4 µM | 15.5 µM | 27.6 µM | 15.2 µM | 18.9 µM | –

— US11161823B2, “Anticancer 1,3-dioxane-4,6-dione derivatives and method of combinatorial synthesis thereof” (National Guard Health Affairs, priority 2019, dated 2021)
